Assay results from article PMC6286318, “Structure-function-guided exploration of the antimicrobial peptide polybia-CP identifies activity determinants and generates synthetic therapeutic candidates” (Communications Biology, 2018).
Entries after “also recorded” stand apart in the source; their conditions may differ. No end group written: not given here.

How the values were obtained:
[1] = Stability assay, resistance to degradation in fetal bovine serum; assay type: in vitro ADME; details: GIBCO fetal bovine serum, RP-LC peak area, three independent replicates; for Resistance to protease-mediated degradation in fetal bovine serum (in words): followed up to 6 h
Protocol: Fig. 6 Hemolysis and resistance to protease-mediated degradation of engineered peptides. a Schematic of experimental design and hemolytic assay results of Pol-CP-NH2 and derivatives, where hemolytic activity was evaluated by incubating the peptides (0.1–100 μmol L^−1) with human red blood cells in PBS at room temperature for 1 h. Experiments were performed in three independent replicates. b Resistance to degradation of Pol-CP-NH2 and analogs exposed to fetal bovine serum (FBS) proteases for 6 h. Experiments were done in three independent replicates (statistical significance was determined using one-way ANOVA, *p < 0.039, error bars represent standard deviation values)
The resistance to degradation assay is detailed by Powell et al.[89], and peptides were exposed to GIBCO fetal bovine serum. The reaction kinetics were followed by reverse-phase liquid chromatography and the percentage of remaining peptide was calculated by integrating the peptide peak area.

[2] = Toxicity to mice in the skin infection model (body weight); assay type: in vivo; details: infected mice treated with 64 μmol L-1 peptide; body weight normalized by non-infected mice
Protocol: Fig. 8 In vivo activity of Pol-CP-NH2 and its analogs. a Schematic of the experimental design. Briefly, the back of mice was shaved and an abrasion was generated to damage the stratum corneum and the upper layer of the epidermis. Subsequently, an aliquot of 50 μL containing 5 × 10^7 CFU of P. aeruginosa in PBS was inoculated over each defined area. […] Four animals per group were euthanized and the area of scarified skin was excised two days post-infection b homogenized using a bead beater for 20 min (25 Hz), and serially diluted for CFU quantification (statistical significance was determined using two-way ANOVA followed by Dunnett’s test, ****p < 0.0001). c Mouse body weight measurements throughout the experiment normalized by the body weight of non-infected mice.
The anti-infective activity of peptides against P. aeruginosa strain PA14 in a mouse model was assessed according to Pane et al.[90] CD-1 IGS female mice (six-weeks-old) were used and maintained in accordance with the Guide for the Care and Use of Laboratory Animals in an AAALAC-accredited facility. All procedures were approved by the MIT’s Institutional Animal Care and Use Committee (IACUC), protocol number 1016-064-19. Two independent experiments were performed with 4 mice per group in each condition. Statistical significance was assessed using a one-way ANOVA.

[3] = test system: HEK293 human embryonic kidney cells; experiment: Cytotoxicity assay (MTS); assay type: cell-based; details: for Cytotoxicity (concentration showing cytotoxic activity): HEK293, 50,000 cells per well, peptides 0-64 μmol L-1, 37 °C, 48 h, MTS assay, three independent replicates; for Cytotoxic concentration relative to MIC against P. aeruginosa: HEK293, 48 h, MTS, compared with MIC against P. aeruginosa
Protocol: Fig. 7 Cytotoxicity of engineered peptides. a Schematic of the experimental design for cytotoxicity assays of Pol-CP-NH2 and derivatives against HEK293 human embryonic kidney cells. Briefly, cells were cultured in DMEM medium supplemented with FBS and antibiotics at 37 °C and 5% CO2 and b results obtained by seeding HEK293 50,000 cells and incubating with peptides’ solution (0–64 μmol L^−1) at 37 °C for 48 h. Cell viability was measured by MTS assay. All experiments were performed in independent triplicates (heat map values represent mean values of three independent replicates)
Human embryonic kidney 293 (HEK 293) cells were cultured in Dulbecco’s Modified Eagle Medium suplemented with 10% Fetal Bovine Serum and 1% penicillin-streptomycin at 37 °C in 5% CO2. The day before treatment, 50,000 HEK 293 cells were seeded into each well in 96-well plates. The peptides were added at concentrations ranging from 0 to 64 μmol L^−1 and 48 h after exposure, cell viability was measured by means of MTS (dimethylthiazol-carboxymethoxyphenyl-sulfophenyl-tetrazolium) assay. Experiments were performed in three independent replicates for each condition.

[4] = RP-HPLC retention time (correlated with hydrophobicity); assay type: physicochemical; details: chromatographic, RP-HPLC Supelcosil C18 (4.6 x 150 mm), 60 Å, 5 μm; A 0.1% TFA/H2O, B 0.1% TFA in 90% ACN/H2O; 5-95% B in 30 minutes; 1.0 mL min-1; 220 nm; correlated with Heliquest hydrophobicity
Protocol: First, theoretical values of physicochemical features such as hydrophobicity, hydrophobic moment, and net positive charge were calculated, and helical wheels were generated using the Heliquest webserver[31] (Table 1 and Supplementary Figure 1). Hydrophobicity values produced by the server were correlated with retention times obtained by RP-HPLC analyses (Supplementary Table 1), confirming the accuracy of the computational predictions. Next, peptides were synthesized and tested against the Gram-negative bacteria Escherichia coli and Pseudomonas aeruginosa, as well as against the Gram-positive bacterium Staphylococcus aureus. We obtained slightly different results from those reported by Souza et al.[30], who described activity against Gram-positive bacteria but poor activity against Gram-negative species. […] MIC results were confirmed by colony-forming unit (CFU) counts of bacteria after one day of exposure to the peptides (Supplementary Figure 2).
Supplem enta r y Ta b le 1. Summary of Pol-CP-NH2 and desi gned anal ogs.
Label Pep t id e Sequence Molecular Ob s erv ed Pu rit y HPLC HC50 MIC SIe Cyt oto xic it y
Weight Molecular (%)b Retention (µmo l L-1)d Av er a g e (µmo l L-1)
(D a) Weight (D a)a Time (min)c (µmo l L-1)
aLC/ESI-MS data were obtained on a Model 6130 Infinity mass spectrometer coupled to a Model 1260 HPLC system (Agilent), using a Phenomenex Gemini C18 column (2.0 […]

[5] = Circular dichroism spectroscopy, helical fraction (fH); assay type: physicochemical; details: CD
Protocol: Fig. 3 Physicochemical features and structure of Pol-CP-NH2 and Ala-scan analogs. a Circular dichroism spectra of Pol-CP-NH2 and Ala-scan derivatives at 50 µmol L^−1 in water, PBS (pH 7.4) and TFE/Water (3:2, v/v) showing peptides transition from unstructured in water to helically structured in TFE/water. Circular dichroism spectra were recorded after four accumulations at 20 °C, using a 1 mm path length quartz cell, between 260 and 190 nm at 50 nm min^-1, with a bandwidth of 0.5 nm. b MIC (µmol L^−1) average for each peptide against the first set of bacteria (E. coli BL21, P. aeruginosa PA01 and PA14, and S. aureus ATCC12600) in three independent replicates vs. fH in TFE/Water solution, where blue boxes represent peptides with lower activity and red boxes show peptides with higher activity compared to the wild-type. Optimal activity is reached in most of the cases for fH values higher than the wild-type
Fig. 4 Physicochemical features and structure of Pol-CP-NH2 and second-generation analogs. Circular dichroism spectra of the peptides at 50 µmol L^−1 in water, MeOH/Water (1:1, v/v), PBS (pH 7.4), POPC (10 mmol L^−1), POPC:DOPE (3:1, 10 mmol L^−1), POPC:POPG (3:1, 10 mmol L^−1), SDS (20 mmol L^−1), TFE/Water (2:3, 3:2, 4:1, v/v) showing peptides transition from unstructured in water to helically structured in TFE/water. Circular dichroism spectra were recorded after four accumulations at 20 °C, using a 1 mm path length quartz cell, between 260 and 190 nm at 50 nm min^−1, with a bandwidth of 0.5 nm
Circular dichroism experiments were performed on a J-815 Circular Dichroism Spectropolarimeter (Jasco). Measurements conditions are described by Torres et al.[84] Peptides at 50 μmol L^−1 were analyzed in ten different environments: water, PBS (pH 7.4), methanol/water (1:1; v-v), TFE/Water (2:3, 3:2 and 4:1; v-v), 10 mmol L^−1 POPC, 10 mmol L^−1 POPC:DOPE (3:1) and 10 mmol L^−1 POPC:POPG (3:1). Vesicles were prepared according to Torres et al.[35]. A Fourier transform filter was applied to minimize background effects.

**Q.** Which “Resistance to protease-mediated degradation in fetal bovine serum (in words)” value (from here on “Resistance”) [1] does the source give for “GLGTILGLLKSL-NH2 [Peptide 20, [Gly]^1-Pol-CP-NH2]” here?
**A.** Its value is “degraded in a few minutes”.

**Q.** With “ILGTILKLLKSL-NH2 [Peptide 16, [Lys]^7-Pol-CP-NH2]” as the substance, how does the “Toxicity to mice / body weight, in words” value [2] read?
**A.** Its value is “did not change abruptly; also recorded: non-toxic to mice”.

**Q.** What about the “Cytotoxicity (concentration showing cytotoxic activity)” value [3] of the same substance?
**A.** The value was 16 µmol/L.

**Q.** What about the “Cytotoxic concentration relative to MIC against P. aeruginosa” value [3] of the same substance?
**A.** The value was “two-fold to four-fold higher than their MICs”.

**Q.** And the “Resistance” value [1]?
**A.** The value was “increased resistance to protease-mediated degradation”.

**Q.** For “ILETKLGLLKSE-NH2 [Peptide 19, [Glu]^3-[Lys]^5-[Glu]^12-Pol-CP-NH2]”, which “HPLC Retention Time” value [4] is on record?
**A.** Its value is 9.2 min.

**Q.** What about the “Helical fraction fH, MeOH/Water (1:1)” value ([5]; peptide 50 µmol L-1, MeOH/Water 1:1 v/v, 20 °C) of the same substance?
**A.** The value was 0.02.

**Q.** And the “Helical fraction fH, PBS” value ([5]; peptide 50 µmol L-1, PBS pH 7.4, 20 °C)?
**A.** The value was 0.03.

**Q.** And the “Helical fraction fH, POPC” value ([5]; peptide 50 µmol L-1, POPC 10 mmol L-1 vesicles, 20 °C)?
**A.** The value was 0.

**Q.** What about the “Helical fraction fH, POPC/DOPE (3:1)” value ([5]; peptide 50 µmol L-1, POPC:DOPE 3:1 mol:mol 10 mmol L-1 vesicles, 20 °C) of the same substance?
**A.** The value was 0.03.

**Q.** What about the “Helical fraction fH, POPC/POPG (3:1)” value ([5]; peptide 50 µmol L-1, POPC:POPG 3:1 mol:mol 10 mmol L-1 vesicles, 20 °C) of the same substance?
**A.** The value was 0.04.

**Q.** And the “Helical fraction fH, SDS” value ([5]; peptide 50 µmol L-1, SDS 20 mmol L-1 micelles, 20 °C)?
**A.** Its value is 0.13.

**Q.** And the “Helical fraction fH, TFE/Water (2:3)” value ([5]; peptide 50 µmol L-1, TFE/Water 2:3 v/v, 20 °C)?
**A.** The value was 0.24.

**Q.** And the “Helical fraction fH, TFE/Water (3:2)” value ([5]; peptide 50 µmol L-1, TFE/Water 3:2 v/v, 20 °C)?
**A.** Its value is 0.21.

**Q.** And the “Helical fraction fH, TFE/Water (4:1)” value ([5]; peptide 50 µmol L-1, TFE/Water 4:1 v/v, 20 °C)?
**A.** Its value is 0.31.

**Q.** What about the “Helical fraction fH, Water” value ([5]; peptide 50 µmol L-1, water, 20 °C, 1 mm cell) of the same substance?
**A.** The value was 0.05.

**Q.** For “ILGKILGLLKSL-NH2 [Peptide 15, [Lys]^4-Pol-CP-NH2]”, which “Cytotoxic concentration relative to MIC against P. aeruginosa” value [3] is on record?
**A.** Its value is “two-fold to four-fold higher than their MICs”.

**Q.** What about the “Resistance” value [1] of the same substance?
**A.** Its value is “increased resistance to protease-mediated degradation”.

**Q.** And the remaining at 6 h ([1]; six hours of exposure, read-out: Remaining peptide after exposure to fetal bovine serum)?
**A.** Its remaining at 6 h is roughly 50%.

**Q.** Which “Toxicity to mice / body weight, in words” value [2] does the source give for “ILGTILGLLKSL-NH2 [WT, Pol-CP-NH2, reference compound]” here?
**A.** The value was “did not change abruptly”.

**Q.** What about the “Cytotoxicity (concentration showing cytotoxic activity)” value ([3]; listed as wild-type peptide) of the same substance?
**A.** The value was 32 µmol/L.
